In ChEMBL document CHEMBL2073807, “Effects of glibenclamide on glycylsarcosine transport by the rat peptide transporters PEPT1 and PEPT2” (Br J Pharmacol, 1999):

What was measured:
[1] = target: T1, Solute carrier family 15 member 2 (Rattus norvegicus, UniProt Q63424); assay: TP_TRANSPORTER: inhibition of Gly-Sar uptake in PEPT2-expressing LLC-PK1 cells; type: functional, cell-based
T1 sequence (Q63424 whole entry): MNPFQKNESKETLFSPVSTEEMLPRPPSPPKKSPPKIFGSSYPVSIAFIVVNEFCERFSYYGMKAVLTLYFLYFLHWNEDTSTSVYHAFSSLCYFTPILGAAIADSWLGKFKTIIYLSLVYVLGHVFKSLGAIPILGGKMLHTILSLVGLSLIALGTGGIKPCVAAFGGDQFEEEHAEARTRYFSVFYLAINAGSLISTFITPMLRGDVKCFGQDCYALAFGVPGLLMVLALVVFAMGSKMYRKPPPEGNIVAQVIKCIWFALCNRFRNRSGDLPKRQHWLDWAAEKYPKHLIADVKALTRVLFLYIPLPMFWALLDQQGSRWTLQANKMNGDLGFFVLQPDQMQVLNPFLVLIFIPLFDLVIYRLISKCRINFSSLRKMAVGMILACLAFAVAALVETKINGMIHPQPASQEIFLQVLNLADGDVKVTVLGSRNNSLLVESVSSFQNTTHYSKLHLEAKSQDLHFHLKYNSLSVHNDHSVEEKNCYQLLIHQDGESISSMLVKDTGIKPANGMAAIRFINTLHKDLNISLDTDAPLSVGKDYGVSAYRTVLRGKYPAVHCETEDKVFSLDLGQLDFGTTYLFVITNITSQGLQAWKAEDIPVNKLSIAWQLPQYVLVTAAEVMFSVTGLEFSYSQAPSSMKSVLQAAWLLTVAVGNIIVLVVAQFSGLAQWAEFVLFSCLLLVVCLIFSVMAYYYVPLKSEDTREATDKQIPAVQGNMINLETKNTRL

[2] = target: T2, Solute carrier family 15 member 1 (Rattus norvegicus, UniProt P51574); assay: TP_TRANSPORTER: inhibition of Gly-Sar uptake in PEPT1-expressing LLC-PK1 cells; type: functional, cell-based
T2 sequence (P51574 whole entry): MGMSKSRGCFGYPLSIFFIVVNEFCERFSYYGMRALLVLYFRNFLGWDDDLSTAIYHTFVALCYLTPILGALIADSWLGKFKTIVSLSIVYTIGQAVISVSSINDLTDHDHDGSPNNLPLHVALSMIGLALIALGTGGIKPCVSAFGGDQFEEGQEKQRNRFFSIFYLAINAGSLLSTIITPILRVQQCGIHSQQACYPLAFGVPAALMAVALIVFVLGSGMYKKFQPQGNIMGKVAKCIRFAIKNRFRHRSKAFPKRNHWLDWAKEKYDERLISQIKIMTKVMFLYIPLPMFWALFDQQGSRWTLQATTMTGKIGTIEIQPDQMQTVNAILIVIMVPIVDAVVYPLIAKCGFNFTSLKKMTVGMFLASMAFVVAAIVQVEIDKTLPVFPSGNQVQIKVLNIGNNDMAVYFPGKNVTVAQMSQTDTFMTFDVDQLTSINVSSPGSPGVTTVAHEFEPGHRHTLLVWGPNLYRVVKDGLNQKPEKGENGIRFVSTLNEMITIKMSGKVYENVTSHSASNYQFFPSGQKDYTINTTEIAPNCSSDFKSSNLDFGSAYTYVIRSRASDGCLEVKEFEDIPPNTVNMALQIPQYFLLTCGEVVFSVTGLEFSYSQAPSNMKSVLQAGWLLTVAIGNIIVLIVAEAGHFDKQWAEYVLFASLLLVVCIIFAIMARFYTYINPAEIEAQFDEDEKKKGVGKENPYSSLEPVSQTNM

- Ki [1]: 7.8 µM
- Ki [2]: 25 µM
SMILES: COc1ccc(Cl)cc1C(=O)NCCc1ccc(S(=O)(=O)NC(=O)NC2CCCCC2)cc1 [GLYBURIDE]
